{"source": "patent US20110269837A1", "about": "“PHOSPHORUS BINDER COMPOSITION FOR TREATMENT OF HYPERPHOSPHATEMIA” (BIOLINK LIFE SCIENCES, INC., priority 2010, published 2011)", "key": {"[1]": {"details": "for Pi binding (FIG. 1): 24 hours; for Observed in vitro Pi Binding, %: inventor's experiments, mean of triplicate determinations", "procedure": "The pH of each solution was adjusted to the desired value by the addition of concentrated hydrochloric acid or sodium hydroxide, as appropriate.\nAn HPLC method with conductivity detection was developed and validated for use in the determination of succinate, acetate and phosphate. The separation was performed on a Dionex AS11 […] HPLC column integrated with an Agilent Series 1100 HPLC system, and detection of the anionic species was enabled using a Dionex ED50 Electrochemical Detector, operating in Conductivity Mode. Limits of Detection and Quantitation were enhanced through the use of a Dionex Anion Self-Regenerating Suppressor. After assay-specific development and verification of assay performance were completed, the analysis of phosphate and succinate or acetate was performed by sampling the test solution and diluting it, if necessary, to a concentration within the linear range of the Assay. The sample was then injected onto the HPLC column and eluted with a sodium hydroxide gradient. Data were acquired using Agilent ChemStation® software.\nExperimental Methods: Experiments were completed in triplicate in which 2.77 g of Na2HPO4.7 H2O (equivalent to 320 mg of elemental phosphorus) was dissolved in 570 mL of deionized water. The test or control binder was dissolved in deionized water to a volume of 30 mL. The binder solution was added to the phosphorus solution to give a final volume of 600 mL. For each binder study, the phosphorus solutions were titrated by addition of dilute HCl or dilute NaOH to five different initial pH levels: 4, 5, 6, 7, and 8. (These solution pH's span the pH range of the gastrointestinal tract.) Then the beakers containing the solutions were covered with plastic wrap and placed on a stir plate that agitated the solution at ˜20 cycles per minute overnight. This stirring rate has been selected because in vitro antacid activity at such low stirring rates has been reported to correlate well with in vivo antacid activity in the stomach. Samples for ion chromatographic assay of solution phosphate (Pi) were taken at 24 hours post-mixing (the maximum time available for phosphorus binding that has been reported in related in vivo studies). The decrease in phosphorus concentration from the original concentration in the phosphorus solution to that of the filtrate represents the bound phosphorus."}, "[2]": {"details": "Sheikh et al. 1989, cited from earlier work"}, "[3]": {"details": "healthy human subjects, anticipated", "text": "Net calcium absorption will be measured by a validated method, such as the one described in detail by Bo-Linn, G. W. et al., Journal of Clinical Investigation, 73: 640-647 (1984). The procedure that will be followed is described below.\nOn each day, subjects will be prepared by a mannitol-electrolyte gastrointestinal lavage, in order to cleanse the gastrointestinal tract. […] Then each subject will eat a test meal of 80 g ground sirloin steak, 100 g French fried potatoes, 30 g Swiss cheese and 250 mL water containing 10 g of polyethylene glycol (PEG3500) as a non-absorbable marker. After the meal, each subject will consume 25 mEq of calcium, in the same form as will have been consumed prior to the meal, or additional placebo, with 100 mL of water. Duplicate meals will be prepared (one for consumption and one to be analyzed for calcium and phosphorus). The duplicate meals will be analyzed for calcium and phosphorus and are expected to contain about 350 mg of phosphorus and about 215 mg of calcium. […]\nTen hours after a meal, a second lavage will be begun, using the procedure described above. […] All urine voided during the 10-hour period will be collected and analyzed for phosphorus and calcium. Rectal effluent will be collected, pooled with any stool passed during the 10-hour period and analyzed for phosphorus and calcium. Absorption will be calculated according to the following equation: […]"}}, "note": "Counter-ions that a name gives are not always drawn. Like-named read-outs stand apart in the source and are kept apart here."}
{"compound": "CC(=O)[O-].CC(=O)[O-].[Ca+2]", "note": "[Calcium Acetate, calcium acetate]", "values": [{"measurement": "Pi binding (FIG. 1)", "setting": "[1]; pH 4", "result": 100, "unit": "%"}, {"measurement": "Observed in vitro Pi Binding, %", "setting": "[1]; pH 4.0", "result": 58.6, "unit": "%"}, {"measurement": "Pi binding (FIG. 1)", "setting": "[1]; pH 5", "result": 92, "unit": "%"}, {"measurement": "Pi binding (FIG. 1)", "setting": "[1]; pH 6", "result": 100, "unit": "%"}, {"measurement": "Observed in vitro Pi Binding, %", "setting": "[1]; pH 6.0", "result": 93.8, "unit": "%"}, {"measurement": "Pi binding (FIG. 1)", "setting": "[1]; pH 7", "result": 100, "unit": "%"}, {"measurement": "Pi binding (FIG. 1)", "setting": "[1]; pH 8", "result": 100, "unit": "%"}]}
{"compound": "O=C([O-])[O-].[Ca+2]", "note": "[Calcium Carbonate, calcium carbonate]", "values": [{"measurement": "Observed in vitro Pi Binding, %", "setting": "[2]; pH 6.0", "result": 90, "unit": "%"}]}
{"compound": "O=C([O-])CC(O)(CC(=O)[O-])C(=O)[O-].O=C([O-])CC(O)(CC(=O)[O-])C(=O)[O-].[Ca+2].[Ca+2].[Ca+2]", "note": "[Calcium Citrate, calcium citrate]", "values": [{"measurement": "Observed in vitro Pi Binding, %", "setting": "[2]; pH 6.0", "result": 10, "unit": "%"}, {"measurement": "Observed in vitro Pi Binding, %", "setting": "[2]; pH 6.5", "result": "20% at pH 6.5 (NOTE 2)"}]}
{"compound": "CC(O)C(=O)[O-].CC(O)C(=O)[O-].[Ca+2]", "note": "(centres unmarked) [Calcium Lactate, calcium lactate]", "values": [{"measurement": "Observed in vitro Pi Binding, %", "setting": "[2]; pH 6.0", "result": 90, "unit": "%"}]}
{"compound": "O=C(O)CCC(=O)O", "note": "[Calcium Succinate, butanedioic acid calcium salt]", "values": [{"measurement": "Pi binding compared with calcium acetate (FIG. 1)", "setting": "[1]; each pH value in the range from pH 4 to 8", "result": "matches or exceeds"}, {"measurement": "Observed in vitro Pi Binding, %", "setting": "[1]; pH 4.0", "result": 59.4, "unit": "%"}, {"measurement": "Observed in vitro Pi Binding, %", "setting": "[1]; pH 6.0", "result": 94.0, "unit": "%"}, {"measurement": "dietary phosphorus absorbed from the GI tract", "setting": "[3]; ingested close in time to test meal", "result": "about 20%"}, {"measurement": "change in the percentage of dietary calcium absorbed from the GI tract", "setting": "[3]; versus placebo day", "result": "less than 10%"}]}
{"compound": "calcium gluconate", "values": [{"measurement": "Observed in vitro Pi Binding, %", "setting": "[2]; pH 6.0", "result": 90, "unit": "%"}]}
